Results on five compounds are retold here after patent US6703405B2, “Substituted 4-phenyltetrahydroisoquinolinium salts, process for their preparation, their use as a medicament, and medicament containing them” (Aventis Pharma Deutschland GmbH, priority 2001, dated 2004).

This assay addresses T1, rNHE3 (Rattus norvegicus, UniProt P26433).
T1 construct: expressed in transfected cells
Description: recovery of intracellular pH (pHi) after acidification, BCECF fluorescence. The format is cell-based. The conditions noted are these: pH recovery recorded for three minutes with NHE3; bicarbonate-free conditions. The procedure:
In this test, the recovery in the intracellular pH (pHi) after an acidification is ascertained, which is initiated if the NHE is capable of functioning, even under bicarbonate-free conditions. For this purpose, the pHi was determined using the pH-sensitive fluorescent dye BCECF (Calbiochem, the precursor BCECF-AM is employed). The cells were initially loaded with BCECF. The BCECF fluorescence was determined in a “Ratio Fluorescence Spectrometer” (Photon Technology International, South Brunswick, N.J., USA) at excitation wavelengths of 505 and 440 nm and an emission wavelength of 535 nm and converted into the pHi using calibration curves. The cells were incubated in NH4Cl buffer (pH 7.4) (NH4Cl buffer: 115 mM NaCl, 20 mM NH4Cl, 5 mM KCl, 1 mM CaCl2, 1 mM MgSO4, 20 mM Hepes, 5 mM glucose, 1 mg/ml BSA; a pH of 7.4 was adjusted with 1 M NaOH) even during the BCECF loading. The intracellular acidification was induced by adding 975 μl of an NH4Cl-free buffer (see below) to 25 μl aliquots of the cells incubated in NH4Cl buffer. The subsequent rate of pH recovery was recorded for two minutes with NHE1, five minutes with NHE2 and three minutes with NHE3. To calculate the inhibitory potency of the tested substances, the cells were initially investigated in buffers with which a complete or absolutely no pH recovery took place. For complete pH recovery (100%), the cells were incubated in Na^+-containing buffer (133.8 mM NaCl, 4.7 mM KCl, 1.25 mM CaCl2, 1.25 mM MgCl2, 0.97 mM Na2HPO4, 0.23 mM NaH2PO4, 5 mM Hepes, 5 mM glucose, a pH of 7.0 is adjusted with 1 M NaOH). To determine the 0% value, the cells were incubated in an Na^+-free buffer (133.8 mM choline chloride, 4.7 mM KCl, 1.25 mM CaCl2, 1.25 mM MgCl2, 0.97 mM K2HPO4, 0.23 mM KH2PO4, 5 mM Hepes, 5 mM glucose, a pH of 7.0 is adjusted with 1 M NaOH). The substances to be tested were made up in the Na^+-containing buffer. The recovery of the intracellular pH at each test concentration of a substance was expressed as a percentage of the maximum recovery. The IC50 value for the particular substance for the individual NHE subtypes was calculated from the pH recovery percentages using the Sigma-Plot program.

Structures are written as SMILES. Where a name gives a salt, the structure may show the parent alone.

T1 sequence (P26433 29-831): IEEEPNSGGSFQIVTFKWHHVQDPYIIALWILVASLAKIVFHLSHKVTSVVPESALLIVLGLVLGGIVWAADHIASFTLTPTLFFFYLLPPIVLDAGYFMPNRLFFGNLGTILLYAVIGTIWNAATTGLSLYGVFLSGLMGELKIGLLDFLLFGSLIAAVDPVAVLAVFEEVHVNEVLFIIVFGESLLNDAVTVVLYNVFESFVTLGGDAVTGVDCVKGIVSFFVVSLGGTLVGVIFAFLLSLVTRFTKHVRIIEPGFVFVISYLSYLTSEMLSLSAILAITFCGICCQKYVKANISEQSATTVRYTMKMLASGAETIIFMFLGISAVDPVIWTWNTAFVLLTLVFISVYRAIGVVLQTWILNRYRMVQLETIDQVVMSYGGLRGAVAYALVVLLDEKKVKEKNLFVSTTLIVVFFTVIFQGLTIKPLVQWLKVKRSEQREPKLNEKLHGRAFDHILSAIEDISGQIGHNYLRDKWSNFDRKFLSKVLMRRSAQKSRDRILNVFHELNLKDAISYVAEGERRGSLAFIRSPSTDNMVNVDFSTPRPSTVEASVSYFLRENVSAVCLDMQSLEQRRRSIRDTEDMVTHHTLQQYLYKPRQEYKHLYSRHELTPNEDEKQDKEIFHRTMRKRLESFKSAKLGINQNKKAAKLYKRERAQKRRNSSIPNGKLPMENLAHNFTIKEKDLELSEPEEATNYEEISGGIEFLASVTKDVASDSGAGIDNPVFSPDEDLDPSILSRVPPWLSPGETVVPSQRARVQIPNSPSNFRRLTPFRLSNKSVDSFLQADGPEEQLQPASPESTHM

Usually IC50 stands for the concentration that inhibits the measured activity by half. Low values mean higher potency, high ones lower potency. In turn, `CC(=O)Nc1ccc(C2C[N+](C)(C)Cc3c(Cl)cc(Cl)cc32)cc1` (centres unmarked) [Example 3a, 4-(4-Acetylaminophenyl)-6,8-dichloro-2,2-dimethyl-1,2,3,4-tetrahydroisoquinolinium iodide] yielded an IC50 of 0.67 µM. Consider `CC(=O)Nc1ccc(C2C[N+](C)(C)Cc3c(Cl)cc(Cl)cc32)cc1` (single isomer, unassigned; (+)) [Example 3c, (+)-4-(4-Acetylaminophenyl)-6,8-dichloro-2,2-dimethyl-1,2,3,4-tetrahydroisoquinolinium chloride], for which the half-inhibitory concentration (IC50) was determined as 0.43 µM. Compound `C[N+]1(C)Cc2c(Cl)cc(Cl)cc2C(c2ccc(N)cc2)C1` (centres unmarked) [Example 4, 4-(4-Aminophenyl)-6,8-dichloro-2,2-dimethyl-1,2,3,4-tetrahydroisoquinolinium chloride, hydrochloride] gave an IC50 of 0.03 µM. `C[N+]1(C)Cc2c(Cl)cc(Cl)cc2C(c2ccc(S(N)(=O)=O)cc2)C1` (centres unmarked) [Example 2, 6,8-Dichloro-2,2-dimethyl-4-(4-sulfamoylphenyl)-1,2,3,4-tetrahydroisoquinolinium, Trifluoroacetate] displayed an IC50 of 0.9 µM. In turn, `C[N+]1(C)Cc2c(Cl)cc(Cl)cc2C(c2ccccc2)C1` (centres unmarked) [Example 1, 6,8-Dichloro-2,2-dimethyl-4-phenyl-1,2,3,4-tetrahydroisoquinolinium, trifluoroacetate] came in with an IC50 of 0.23 µM.
